Structures are written as SMILES. Structures can show the parent of a compound that is named as a salt.

The target in one assay is human FLAP (Homo sapiens (Human), UniProt P20292). Put plainly: FLAP binding assay (HTRF format). The following applies: human FLAP wild type, HTRF format; average of two plates, duplicates. The method, then: The ability of the compounds of the present invention to treat a FLAP-mediated disease and/or disorder, or associated symptoms or complications thereof, was determined using the following procedures. Binding assay data represent the average value obtained from two different assay plates, with samples run in duplicate on each plate. Human whole blood assay data represent a single replicate on an assay plate using whole blood from at least one healthy donor.
human FLAP, sequence (P20292 whole entry): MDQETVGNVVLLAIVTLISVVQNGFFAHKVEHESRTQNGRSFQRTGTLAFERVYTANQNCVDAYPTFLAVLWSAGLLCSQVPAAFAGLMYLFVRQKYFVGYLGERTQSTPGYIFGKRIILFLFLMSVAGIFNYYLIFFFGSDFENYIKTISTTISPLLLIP
Data are expressed as a HTRF ratio.
`CS(=O)(=O)c1ccccc1-c1ccc(-c2ncc(N)nc2C#N)c(F)c1` [Example 3, 6-Amino-3-[3-fluoro-2′-(methylsulfonyl)biphenyl-4-yl]pyrazine-2-carbonitrile] registered a Ki above 10000 nM. In turn, `CN1C(C)(C)CC(NS(=O)(=O)c2ccccc2-c2ccc(-c3cnc(N)cn3)c(F)c2)CC1(C)C` [Example 30, 4′-(5-Aminopyrazin-2-yl)-3′-fluoro-N-(1,2,2,6,6-pentamethylpiperidin-4-yl)biphenyl-2-sulfonamide] came in with a Ki of 95 nM. Still for that read-out and setting: in the case of `Nc1cnc(-c2ccc(-c3ccccc3NS(N)(=O)=O)cc2F)cn1` [Example 33, N-[4′-(5-Aminopyrazin-2-yl)-3′-fluorobiphenyl-2-yl]sulfamide] it was 304 nM; in that of `CCS(=O)(=O)c1ccccc1-c1ccc(-c2cnc(N)cn2)c(F)c1` [Example 191, 5-[2′-(Ethylsulfonyl)-3-fluorobiphenyl-4-yl]pyrazin-2-amine], 658 nM.

Molecule `CC(C)(C)S(=O)(=O)c1ccccc1-c1ccc(-c2cnc(N)cn2)c(F)c1` [Example 194, 5-[2′-(tert-Butylsulfonyl)-3-fluorobiphenyl-4-yl]pyrazin-2-amine] gave a Ki of 733 nM. `C[C@H](CO)NS(=O)(=O)Cc1ccccc1-c1ccc(-c2cnc(N)cn2)c(F)c1` [Example 225, (R)-1-(4′-(5-Aminopyrazin-2-yl)-3′-fluoro-[1,1′-biphenyl]-2-yl)-N-(1-hydroxypropan-2-yl)-methanesulfonamide hydrochloride] returned a Ki of 856 nM. On to `NC(=O)NC1CCN(S(=O)(=O)Cc2ccccc2-c2ccc(-c3cnc(N)cn3)c(F)c2)CC1` [Example 232, 1-[1-({[4′-(5-Aminopyrazin-2-yl)-3′-fluorobiphenyl-2-yl]methyl}sulfonyl)piperidin-4-yl]urea hydrochloride], for which the Ki turned out to be 358 nM. In turn, `Nc1cnc(-c2ccc(-c3ccccc3CSc3cccnn3)cc2F)cn1` [Example 239, 5-(3-Fluoro-2′-((pyridazin-3-ylthio)methyl)-[1,1′-biphenyl]-4-yl)pyrazin-2-amine hydrochloride] yielded a Ki of 6 nM. Same read-out and setting: for `Nc1ncc(-c2ccc(-c3ccccc3S(=O)(=O)N3CCNCC3)cc2F)cn1` [Example 290, 5-[3-Fluoro-2′-(piperazin-1-ylsulfonyl)biphenyl-4-yl]pyrimidin-2-amine trifluoroacetic acid salt] the value was 940 nM. The same measure, in the same setting: in the case of `CC(C)(C)S(=O)(=O)c1ccccc1-c1ccc(-c2cnc(N)nc2)c(F)c1` [Example 293, 5-[2′-(tert-Butylsulfonyl)-3-fluorobiphenyl-4-yl]pyrimidin-2-amine trifluoroacetic acid salt] it was above 10000 nM. On the same count and under the same terms, for `CN(C)S(=O)(=O)c1ccccc1-c1ccc(-c2cnc(N)nc2)c(F)c1` [Example 299, 4′-(2-Aminopyrimidin-5-yl)-3′-fluoro-N,N-dimethylbiphenyl-2-sulfonamide trifluoroacetic acid salt] the value was 121 nM; for `Nc1ncc(-c2ccc(-c3ccccc3S(N)(=O)=O)cc2F)cn1` [Example 302, 4′-(2-Aminopyrimidin-5-yl)-3′-fluorobiphenyl-2-sulfonamide trifluoroacetic acid salt], 2500 nM; for `Nc1ncc(-c2ccc(-c3ccccc3S(=O)(=O)N3CCOCC3)cc2F)cn1` [Example 303, 5-[3-Fluoro-2′-(morpholin-4-ylsulfonyl)biphenyl-4-yl]pyrimidin-2-amine trifluoroacetic acid salt], 612 nM. Take `Nc1ncc(-c2ccc(-c3ccccc3S(=O)(=O)N3CCNC(=O)C3)cc2F)cn1` [Example 306, 4-{[4′-(2-Aminopyrimidin-5-yl)-3′-fluorobiphenyl-2-yl]sulfonyl}piperazin-2-one trifluoroacetic acid salt]: the Ki was found to be 397 nM.

As for `C[C@H](NS(=O)(=O)c1ccccc1-c1ccc(-c2cnc(N)nc2)c(F)c1)C(=O)O` [Example 308, N-{[4′-(2-Aminopyrimidin-5-yl)-3′-fluorobiphenyl-2-yl]sulfonyl}-L-alanine], the Ki is above 10000 nM. On the same count and under the same terms, in the case of `Nc1ncc(-c2ccc(-c3ccccc3NS(=O)(=O)N3CCOCC3)cc2F)cn1` [Example 310, N-[4′-(2-Aminopyrimidin-5-yl)-3′-fluorobiphenyl-2-yl]morpholine-4-sulfonamide] it was 492 nM.

Consider `CN(C)S(=O)(=O)Nc1ccccc1-c1ccc(-c2cnc(N)nc2)c(F)c1` [Example 311, N′-[4′-(2-Aminopyrimidin-5-yl)-3′-fluorobiphenyl-2-yl]-N,N-dimethylsulfamide], for which the affinity corresponds to a Ki of 747 nM. Same read-out and setting: for `Nc1ncc(-c2ccc(-c3ccccc3S(=O)(=O)C3CCS(=O)(=O)CC3)cc2F)cn1` [Example 316, 5-{2′-[(1,1-Dioxidotetrahydro-2H-thiopyran-4-yl)sulfonyl]-3-fluorobiphenyl-4-yl}pyrimidin-2-amine hydrochloride] the value was 746 nM; for `Nc1cnc(S(=O)(=O)c2ccccc2-c2ccc(-c3cnc(N)nc3)c(F)c2)nc1` [Example 339, 5-{2′-[(5-Aminopyrimidin-2-yl)sulfonyl]-3-fluorobiphenyl-4-yl}pyrimidin-2-amine hydrochloride], 2500 nM. For the molecule `CS(=O)(=O)c1ccccc1-c1ccc(-c2ccc(N)nc2)c(F)c1` [Example 341, 5-(3-Fluoro-2′-(methylsulfonyl)-[1,1′-biphenyl]-4-yl)pyridin-2-amine], the Ki was above 10000 nM. In the case of `C[C@@H](CO)NS(=O)(=O)c1ccccc1-c1ccc(-c2ccc(N)nc2)c(F)c1` [Example 347, (S)-4′-(6-Aminopyridin-3-yl)-3′-fluoro-N-(1-hydroxypropan-2-yl)-[1,1′-biphenyl]-2-sulfonamide], the affinity, expressed as Ki, was 77 nM. On the same count and under the same terms, for `CC(C)Sc1ncc(C(F)(F)F)cc1-c1ccc(-c2cnc3[nH]ccc3n2)c(F)c1` [Example 394, 2-(2-Fluoro-4-{2-[(1-methylethyl)sulfanyl]-5-(trifluoromethyl)pyridin-3-yl}phenyl)-5H-pyrrolo[2,3-b]pyrazine] the value was above 10000 nM.

Still in this assay, the particulars now being: read-out: FLAP Binding wild type HTRF Ki.
For the molecule `Nc1cnc(-c2ccc(-c3ccccc3CS(=O)(=O)N3CCNC(=O)C3)cc2F)cn1` [Example 223, 4-({[4′-(5-Aminopyrazin-2-yl)-3′-fluorobiphenyl-2-yl]methyl}sulfonyl)piperazin-2-one formic acid salt], the Ki came to 663 nM. The same measure, in the same setting: for `CS(=O)(=O)c1ccccc1-c1ccc(-c2cnc(N)nc2)c(F)c1` [Example 304, 5-[3-Fluoro-2′-(methylsulfonyl)biphenyl-4-yl]pyrimidin-2-amine trifluoroacetic acid salt] the value was above 10000 nM; for `Nc1ncc(-c2ccc(-c3ccccc3S(=O)(=O)c3ncncc3N)cc2F)cn1` [Example 337, 5-{2′-[(5-Aminopyrimidin-4-yl)sulfonyl]-3-fluorobiphenyl-4-yl}pyrimidin-2-amine hydrochloride], 2500 nM.

Staying with this assay, now noted: wild type FLAP, HTRF format.
`CC(O)C1CN(C(=O)c2ccccc2-c2ccc(-c3cnc(N)cn3)c(F)c2)CCO1` (mixture of isomers) [Example 758, 1-(4-{[4′-(5-Aminopyrazin-2-yl)-3′-fluorobiphenyl-2-yl]carbonyl}morpholin-2-yl)ethanol (Diastereomeric Mixture)] yielded a Ki of 557 nM. `CC(O)C1CN(C(=O)c2ccccc2-c2ccc(-c3cnc(N)nc3)c(F)c2)CCO1` (mixture of isomers) [Example 759, 1-(4-{[4′-(2-Aminopyrimidin-5-yl)-3′-fluorobiphenyl-2-yl]carbonyl}morpholin-2-yl)ethanol (diastereomeric mixture)] displayed a Ki above 10000 nM. Still for that read-out and setting: for `Nc1ncc(-c2ccc(-c3ccccc3C(=O)NC3CCC(O)CC3)cc2F)cn1` (mixture of isomers) [Example 765, (cis/trans) 4′-(2-Aminopyrimidin-5-yl)-3′-fluoro-N-(4-hydroxycyclohexyl)biphenyl-2-carboxamide] the value was above 10000 nM; for `CC1CN(C(=O)c2ccccc2-c2ccc(-c3cnc(N)nc3)c(F)c2)CC(C)O1` (mixture of isomers) [Example 780, 5-{2′-[(2,6-Dimethylmorpholin-4-yl)carbonyl]-3-fluorobiphenyl-4-yl}pyrimidin-2-amine (Diastereoisomeric Mixture)], above 10000 nM. Same read-out and setting: for `C[S+]([O-])c1ccccc1-c1ccc(-c2cnc(N)cn2)c(F)c1` (racemic) [Example 700, racemic 5-[3-Fluoro-2′-(methylsulfinyl)biphenyl-4-yl]pyrazin-2-amine] the value was above 10000 nM. The molecule `Nc1ncc(-c2ccc(-c3ccccc3C(=O)N3CCOC(C(F)(F)F)C3)cc2F)cn1` (racemic) [Example 766, racemic 5-(3-Fluoro-2′-{[2-(trifluoromethyl)morpholin-4-yl]carbonyl}biphenyl-4-yl)pyrimidin-2-amine] had a Ki of 1910 nM. `Nc1ncc(-c2ccc(-c3ccccc3C(=O)N3CCOC(CO)C3)cc2F)cn1` (racemic) [Example 799, racemic [2-[4-(2-Aminopyrimidin-5-yl)-3-fluoro-phenyl]phenyl]-[2-(hydroxymethyl)morpholin-4-yl]methanone] returned a Ki above 10000 nM. Molecule `CC(CO)Oc1ncccc1-c1ccc(-c2cnc(N)nc2)c(F)c1` (stereo in doubt) [Example 656, (2R)-2-({3-[4-(2-Aminopyrimidin-5-yl)-3-fluorophenyl]pyridin-2-yl}oxy)propan-1-ol] came in with a Ki of 1400 nM. Still for that read-out and setting: in the case of `Fc1cc(-c2cccnc2OCC(F)(F)F)ccc1-c1cnc2[nH]ccc2n1` [Example 397, 2-{2-Fluoro-4-[2-(2,2,2-trifluoroethoxy)pyridin-3-yl]phenyl}-5H-pyrrolo[2,3-b]pyrazine] it was above 10000 nM; in that of `Nc1cnc(-c2ccc(-c3cccnc3OCC3CCNC3)cc2F)cn1` (stereo not drawn) [Example 407, 5-{2-Fluoro-4-[2-(pyrrolidin-3-ylmethoxy)pyridin-3-yl]phenyl}pyrazin-2-amine], above 10000 nM; in that of `Nc1ncc(-c2ccc(-c3cccnc3N)cc2F)cn1` [Example 409, 5-[4-(2-Aminopyridin-3-yl)-2-fluorophenyl]pyrimidin-2-amine], above 10000 nM.

The values are drawn from US9079866B2, “Flap modulators” (JANSSEN PHARMACEUTICA NV, priority 2013, dated 2015).
